# Biological target: full-length human recombinant active AKT-1 (Homo sapiens, UniProt P31749)
# Experiment: AKT-1 kinase assay (IMAP fluorescence polarization, phosphorylation of fluorescently-labeled peptide)
# Assay type: biochemical
# Conditions: AKT-1 IMAP assay, qualitative statement, values not given
# Text: The activity of the compounds described in the present invention may be determined by the following procedure: This procedure describes a kinase assay that measures the phosphorylation of a fluorescently-labeled peptide by full-length human recombinant active AKT-1 by fluorescent polarization using a commercially available IMAP kit.
# The assay materials come from an IMAP AKT Assay Bulk Kit, product #R8059, from Molecular Devices, Sunnyvale, Calif. The kit materials include an IMAP Reaction Buffer (5×): The diluted 1×IMAP Reaction Buffer contains 10 mM Tris-HCl, pH 7.2, 10 mM MgCl2, 0.1% BSA, 0.05% NaN3. DTT is routinely added to a final concentration of 1 mM immediately prior to use.
# Also included are IMAP Binding Buffer (5×), and IMAP Binding Reagent. The Binding Solution is prepared as a 1:400 dilution of IMAP Binding Reagent into 1×IMAP Binding Buffer.
# Fluorescein-labeled AKT Substrate (Crosstide), having the sequence (F1)-GRPRTSSFAEG. A stock solution of 20 μM is made up in 1×IMAP Reaction Buffer.
# The plates used include a Costar 3657 ([…] made of polypropylene and having a white, v-bottom) that is used for compound dilution and for preparing the compound-ATP mixture. The assay plate was the Packard ProxyPlate™-384 F.
# The AKT-1 used was made from full-length, human recombinant AKT-1 that is activated with PDK1 and MAP kinase 2.
# The assay procedure starts the preparation of stock solutions of compounds at 10 mM in DMSO. The stock solutions and the control compound are serially diluted 1:2 nine times into DMSO (10 μL of compound+10 μL of DMSO) to give 50× dilution series over the desired dosing range. […]
# The assay is initiated by the addition of 2.5-μL aliquots of a solution containing 200 nM of fluorescently-labeled peptide substrate and 4 nM AKT-1. […] The reaction is then quenched by the addition of 15 μL of Binding Solution, centrifuged again and incubated for an additional 30 minutes at ambient temperature prior to reading on a Victor 1420 Multilabel HTS Counter configured to measure fluorescence polarization.
# Sequence of full-length human recombinant active AKT-1 (P31749 whole entry): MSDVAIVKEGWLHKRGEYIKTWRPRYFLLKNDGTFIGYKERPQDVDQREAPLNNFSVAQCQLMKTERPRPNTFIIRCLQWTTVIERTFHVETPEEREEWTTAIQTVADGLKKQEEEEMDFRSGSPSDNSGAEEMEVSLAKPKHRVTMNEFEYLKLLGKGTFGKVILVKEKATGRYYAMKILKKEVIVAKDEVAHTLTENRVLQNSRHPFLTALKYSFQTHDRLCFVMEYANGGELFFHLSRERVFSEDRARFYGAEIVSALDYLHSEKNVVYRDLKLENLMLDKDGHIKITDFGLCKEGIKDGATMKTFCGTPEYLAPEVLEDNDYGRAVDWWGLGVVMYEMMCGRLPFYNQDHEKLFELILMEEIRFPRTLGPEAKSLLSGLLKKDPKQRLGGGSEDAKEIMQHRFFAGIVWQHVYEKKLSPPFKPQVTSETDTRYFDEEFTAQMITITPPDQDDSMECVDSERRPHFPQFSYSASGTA
row,activity for inhibiting AKT protein kinases,SMILES
1,showed activity,"N[C@H](Cc1ccc2ccccc2c1)C(=O)N1CCN(c2ncnc3ccccc23)CC1 [Example 11, (2R)-2-Amino-3-(2-naphthyl)-1-(4-quinazolin-4-yl-piperazin-1-yl)-propan-1-one]"
2,showed activity,"N[C@H](Cc1ccc(Cl)cc1)C(=O)N1CCN(c2ccnc3ccsc23)CC1 [Example 24, (2R)-2-amino-3-(4-chlorophenyl)-1-(4-thieno[3,2,b]pyridin-7-yl-piperazin-1-yl)-propan-1-one dihydochloride]"
3,showed activity,"N[C@H](Cc1ccc(Cl)cc1)C(=O)N1CCN(c2ncnc3ccccc23)CC1 [Example 9, (2R)-2-Amino-3-(4-chlorophenyl)-1-(4-quinazolin-4-yl-piperazin-1-yl)-propan-1-one]"

# Reference: patent publication US8680114B2, “AKT protein kinase inhibitors” (Array Biopharma, Inc., priority 2003, dated 2014)
